In patent US9931327B2, “Derivatives of 1-phenyl-2-pyridinyl alkyl alcohols as phosphodiesterase inhibitors” (Chiesi Farmaceutici S.p.A., priority 2011, dated 2018):

The compounds below were run on LPS-induced TNF-α release in peripheral blood mononuclear cells (PBMCs) (assay: In vitro determination of PDE4 inhibitory activity in the PBMCs assay (LPS-induced TNF-α release)). Details: PBMC; human PBMCs, LPS 3 ng/ml, 18 hours, TNF-α by ELISA; read-out: PDE4 inhibition (IC50, 50% inhibition of LPS-induced TNF-α release).
Assay type: cell-based, human
In short: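 Cryopreserved human PBMCs (10^5 cells/well) pre-incubated 30 min with compound (10^−12 to 10^−6 M or 10^−3 to 10^−7 M), then stimulated with LPS 3 ng/ml for 18 h at 37 °C. TNF-α in medium by ELISA; IC50 as mean ± 95% confidence limits.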

| Compound | IC50 |
| --- | --- |
| Cc1noc2ncc(S(=O)(=O)N3CCC[C@H]3C(=O)O[C@@H](Cc3c(Cl)c[n+]([O-])cc3Cl)c3ccc(OC(F)F)c(OCC4CC4)c3)cc12 [Compound 251, 3,5-dichloro-4-((S)-2-(3-(cyclopropylmethoxy)-4-(difluoromethoxy)phenyl)-2-((S)-1-(3-methylisoxazolo[5,4-b]pyridin-5-ylsulfonyl)pyrrolidine-2-carbonyloxy)ethyl)pyridine 1-oxide] | < 0.1 nM |
| CN1CCOc2ccc(S(=O)(=O)N3CSC[C@H]3C(=O)O[C@@H](Cc3c(Cl)c[n+]([O-])cc3Cl)c3ccc(OC(F)F)c(OCC4CC4)c3)cc21 [Compound 252, 3,5-dichloro-4-((S)-2-(3-(cyclopropylmethoxy)-4-(difluoromethoxy)phenyl)-2-((R)-3-(4-methyl-3,4-dihydro-2H-benzo[b][1,4]oxazin-6-ylsulfonyl)thiazolidine-4-carbonyloxy)ethyl)pyridine 1-oxide] | < 0.1 nM |
| Cc1noc2ncc(S(=O)(=O)N3CSC[C@H]3C(=O)O[C@@H](Cc3c(Cl)c[n+]([O-])cc3Cl)c3ccc(OC(F)F)c(OCC4CC4)c3)cc12 [Compound 253, 3,5-dichloro-4-((S)-2-(3-(cyclopropylmethoxy)-4-(difluoromethoxy)phenyl)-2-((R)-3-(3-methylisoxazolo[5,4-b]pyridin-5-ylsulfonyl)thiazolidine-4-carbonyloxy)ethyl)pyridine 1-oxide] | 0.1 to 1 nM |
| CN(C)C(=O)c1cccc(S(=O)(=O)N2CCS[C@H]2C(=O)O[C@@H](Cc2c(Cl)c[n+]([O-])cc2Cl)c2ccc(OC(F)F)c(O)c2)c1 [Compound 263, 3,5-dichloro-4-((S)-2-(4-(difluoromethoxy)-3-hydroxyphenyl)-2-((S)-3-(3-(dimethylcarbamoyl)phenylsulfonyl)thiazolidine-2-carbonyloxy)ethyl)pyridine 1-oxide] | 1 to 10 nM |
| NC(=O)Nc1cccc(S(=O)(=O)N2CCS[C@H]2C(=O)O[C@@H](Cc2c(Cl)c[n+]([O-])cc2Cl)c2ccc(OC(F)F)c(OCC3CC3)c2)c1 [Compound 269, 3,5-dichloro-4-((S)-2-(3-(cyclopropylmethoxy)-4-(difluoromethoxy)phenyl)-2-((S)-3-(3-ureidophenylsulfonyl)thiazolidine-2-carbonyloxy)ethyl)pyridine 1-oxide] | < 0.1 nM |
| O=C(O[C@@H](Cc1c(Cl)c[n+]([O-])cc1Cl)c1ccc(OC(F)F)c(OCC2CC2)c1)[C@@H]1SCCN1S(=O)(=O)c1cccc(CO)c1 [Compound 271, 3,5-dichloro-4-((S)-2-(3-(cyclopropylmethoxy)-4-(difluoromethoxy)phenyl)-2-((S)-3-(3-(hydroxymethyl)phenylsulfonyl)thiazolidine-2-carbonyloxy)ethyl)pyridine 1-oxide] | < 0.1 nM |
| CN(C)C(=O)c1cccc(S(=O)(=O)N2CC(C(=O)O[C@@H](Cc3c(Cl)c[n+]([O-])cc3Cl)c3ccc(OC(F)F)c(OCC4CC4)c3)C2)c1 [Compound 281, (S)-3,5-dichloro-4-(2-(3-(cyclopropylmethoxy)-4-(difluoromethoxy)phenyl)-2-(1-(3-(dimethylcarbamoyl)phenylsulfonyl)azetidine-3-carbonyloxy)ethyl)pyridine 1-oxide] | 0.1 to 1 nM |
| O=C(O[C@@H](Cc1c(Cl)c[n+]([O-])cc1Cl)c1ccc(OC(F)F)c(OCC2CC2)c1)[C@@H]1SCCN1S(=O)(=O)CCN1CCOCC1 [Compound 287, 3,5-dichloro-4-((S)-2-(3-(cyclopropylmethoxy)-4-(difluoromethoxy)phenyl)-2-((S)-3-(2-morpholinoethylsulfonyl)thiazolidine-2-carbonyloxy)ethyl)pyridine 1-oxide] | < 0.1 nM |
| CN1CCN(CCS(=O)(=O)N2CCS[C@H]2C(=O)O[C@@H](Cc2c(Cl)c[n+]([O-])cc2Cl)c2ccc(OC(F)F)c(OCC3CC3)c2)CC1 [Compound 288, 3,5-dichloro-4-((S)-2-(3-(cyclopropylmethoxy)-4-(difluoromethoxy)phenyl)-2-((S)-3-(2-(4-methylpiperazin-1-yl)ethylsulfonyl)thiazolidine-2-carbonyloxy)ethyl)pyridine 1-oxide] | 0.1 to 1 nM |
| CN(C)C(=O)c1cccc(CS(=O)(=O)N2CCS[C@H]2C(=O)O[C@@H](Cc2c(Cl)c[n+]([O-])cc2Cl)c2ccc(OC(F)F)c(OCC3CC3)c2)c1 [Compound 295, 3,5-dichloro-4-((S)-2-(3-(cyclopropylmethoxy)-4-(difluoro-methoxy)phenyl)-2-((S)-3-(3-(dimethylcarbamoyl)benzylsulfonyl)-thiazolidine-2-carbonyloxy)ethyl)pyridine 1-oxide] | 0.1 to 1 nM |
| COc1cc([C@H](Cc2c(Cl)c[n+]([O-])cc2Cl)OC(=O)[C@@H]2SCCN2S(=O)(=O)c2cccc(C(=O)N(C)C)c2)ccc1OC(F)F [Compound 299, 3,5-dichloro-4-((S)-2-(4-(difluoromethoxy)-3-methoxyphenyl)-2-((S)-3-(3-(dimethylcarbamoyl)phenylsulfonyl)thiazolidine-2-carbonyloxy)ethyl)pyridine 1-oxide] | < 0.1 nM |
| COc1ccc([C@H](Cc2c(Cl)c[n+]([O-])cc2Cl)OC(=O)[C@@H]2CCCN2S(=O)(=O)c2cccc(C(=O)N(C)C)c2)cc1OC [Compound 310, 3,5-dichloro-4-((S)-2-(3,4-dimethoxyphenyl)-2-((S)-1-(3-(dimethylcarbamoyl)phenylsulfonyl)pyrrolidine-2-carbonyloxy)ethyl)pyridine 1-oxide] | < 0.1 nM |
